# Source: article PMC9506414, “Novel 2,6,9-Trisubstituted Purines as Potent CDK Inhibitors Alleviating Trastuzumab-Resistance of HER2-Positive Breast Cancers” (Pharmaceuticals, 2022)
# Key:
# Assay in all cases: Kinome-wide inhibition profiling
# Format in all cases: biochemical
# CIT = biological target: T1, CIT (Homo sapiens, UniProt O14578)
# T1 construct: purchased Reaction Biology Corp
# Protocol: (§1) In vitro CDK12/cyclinK assays for all compounds and in vitro kinome-wide inhibition profiling of 30d at 10 μM were performed by a CRO company (Reaction Biology Corp., San Diego, CA, USA).
# AKT2 = biological target: T2, AKT2 (Homo sapiens, UniProt P31751)
# T2 construct: purchased Reaction Biology Corp
# Protocol: as §1
# SLK = biological target: T3, SLK (Homo sapiens, UniProt Q9H2G2)
# T3 construct: purchased Reaction Biology Corp
# Protocol: as §1
# SNRK = biological target: T4, SNRK (Homo sapiens, UniProt Q9NRH2)
# T4 construct: purchased Reaction Biology Corp
# Protocol: as §1
# HPK1 = biological target: T5, HPK1 (Homo sapiens, UniProt Q92918)
# T5 construct: purchased Reaction Biology Corp
# Protocol: as §1
# EPHA5 = biological target: T6, EPHA5 (Homo sapiens, UniProt P54756)
# T6 construct: purchased Reaction Biology Corp
# Protocol: as §1
# MARK2 = biological target: T7, MARK2 (Homo sapiens, UniProt Q7KZI7)
# T7 construct: purchased Reaction Biology Corp
# Protocol: as §1
# FGFR4 = biological target: T8, FGFR4 (Homo sapiens, UniProt P22455)
# T8 construct: purchased Reaction Biology Corp
# Protocol: as §1
# ALK = biological target: T9, ALK (Homo sapiens, UniProt Q9UM73)
# T9 construct: purchased Reaction Biology Corp
# Protocol: as §1
# MYLK2 = biological target: T10, MYLK2 (Homo sapiens, UniProt Q9H1R3)
# T10 construct: purchased Reaction Biology Corp
# Protocol: as §1
# PRKD1 = biological target: T11, PRKD1 (Homo sapiens, UniProt Q15139)
# T11 construct: purchased Reaction Biology Corp
# Protocol: as §1
# DAPK3 = biological target: T12, DAPK3 (Homo sapiens, UniProt O43293)
# T12 construct: purchased Reaction Biology Corp
# Protocol: as §1
# MYO3A = biological target: T13, MYO3A (Homo sapiens, UniProt Q8NEV4)
# T13 construct: purchased Reaction Biology Corp
# Protocol: as §1
# GSK3a = biological target: T14, GSK3a (Homo sapiens, UniProt P49840)
# T14 construct: purchased Reaction Biology Corp
# Protocol: as §1
# FRK = biological target: T15, FRK (Homo sapiens, UniProt P42685)
# T15 construct: purchased Reaction Biology Corp
# Protocol: as §1
# PAK6 = biological target: T16, PAK6 (Homo sapiens, UniProt Q9NQU5)
# T16 construct: purchased Reaction Biology Corp
# Protocol: as §1
# MKK6 = biological target: T17, MKK6 (Homo sapiens, UniProt P52564)
# T17 construct: purchased Reaction Biology Corp
# Protocol: as §1
# CLK4 = biological target: T18, CLK4 (Homo sapiens, UniProt Q9HAZ1)
# T18 construct: purchased Reaction Biology Corp
# Protocol: as §1
# P38-gamma = biological target: T19, P38-gamma (Homo sapiens, UniProt P53778)
# T19 construct: purchased Reaction Biology Corp
# Protocol: as §1
# MET = biological target: T20, MET (Homo sapiens, UniProt P08581)
# T20 construct: purchased Reaction Biology Corp
# Protocol: as §1
# WNK1 = biological target: T21, WNK1 (Homo sapiens, UniProt Q9H4A3)
# T21 construct: purchased Reaction Biology Corp
# Protocol: as §1
# MAP3K1 = biological target: T22, MAP3K1 (Homo sapiens, UniProt Q13233)
# T22 construct: purchased Reaction Biology Corp
# Protocol: as §1
# MASTL = biological target: T23, MASTL (Homo sapiens, UniProt Q96GX5)
# T23 construct: purchased Reaction Biology Corp
# Protocol: as §1
# MST3 = biological target: T24, MST3 (Homo sapiens, UniProt Q9Y6E0)
# T24 construct: purchased Reaction Biology Corp
# Protocol: as §1
# STK16 = biological target: T25, STK16 (Homo sapiens, UniProt O75716)
# T25 construct: purchased Reaction Biology Corp
# Protocol: as §1
# PDPK1 = biological target: T26, PDPK1 (Homo sapiens, UniProt O15530)
# T26 construct: purchased Reaction Biology Corp
# Protocol: as §1
# LOK = biological target: T27, LOK (Homo sapiens, UniProt O94804)
# T27 construct: purchased Reaction Biology Corp
# Protocol: as §1
# CDK4/cyclinD3 = biological target: T28, CDK4/cyclinD3 (Homo sapiens, UniProt P11802)
# T28 construct: purchased Reaction Biology Corp
# Protocol: as §1
# DMPK = biological target: T29, DMPK (Homo sapiens, UniProt Q09013)
# T29 construct: purchased Reaction Biology Corp
# Protocol: as §1
# MAST3 = biological target: T30, MAST3 (Homo sapiens, UniProt O60307)
# T30 construct: purchased Reaction Biology Corp
# Protocol: as §1
# CSNK1G2 = biological target: T31, CSNK1G2 (Homo sapiens, UniProt P78368)
# T31 construct: purchased Reaction Biology Corp
# Protocol: as §1
# EPHA7 = biological target: T32, EPHA7 (Homo sapiens, UniProt Q15375)
# T32 construct: purchased Reaction Biology Corp
# Protocol: as §1
# ACVRL1 = biological target: T33, ACVRL1 (Homo sapiens, UniProt P37023)
# T33 construct: purchased Reaction Biology Corp
# Protocol: as §1
# MINK = biological target: T34, MINK (Homo sapiens, UniProt Q8N4C8)
# T34 construct: purchased Reaction Biology Corp
# Protocol: as §1
# TGFBR2 = biological target: T35, TGFBR2 (Homo sapiens, UniProt P37173)
# T35 construct: purchased Reaction Biology Corp
# Protocol: as §1
# LTK = biological target: T36, LTK (Homo sapiens, UniProt P29376)
# T36 construct: purchased Reaction Biology Corp
# Protocol: as §1
# PIM1 = biological target: T37, PIM1 (Homo sapiens, UniProt P11309)
# T37 construct: purchased Reaction Biology Corp
# Protocol: as §1
# TNK1 = biological target: T38, TNK1 (Homo sapiens, UniProt Q13470)
# T38 construct: purchased Reaction Biology Corp
# Protocol: as §1
# STK33 = biological target: T39, STK33 (Homo sapiens, UniProt Q9BYT3)
# T39 construct: purchased Reaction Biology Corp
# Protocol: as §1
# TLK2 = biological target: T40, TLK2 (Homo sapiens, UniProt Q86UE8)
# T40 construct: purchased Reaction Biology Corp
# Protocol: as §1
# SNARK = biological target: T41, SNARK (Homo sapiens, UniProt Q9H093)
# T41 construct: purchased Reaction Biology Corp
# Protocol: as §1
# VEGFR2 = biological target: T42, VEGFR2 (Homo sapiens, UniProt P35968)
# T42 construct: purchased Reaction Biology Corp
# Protocol: as §1
# IKK-alpha = biological target: T43, IKK-alpha (Homo sapiens, UniProt O15111)
# T43 construct: purchased Reaction Biology Corp
# Protocol: as §1
# IKK-epsilon = biological target: T44, IKK-epsilon (Homo sapiens, UniProt Q14164)
# T44 construct: purchased Reaction Biology Corp
# Protocol: as §1
# T32 sequence (Q15375 28-998): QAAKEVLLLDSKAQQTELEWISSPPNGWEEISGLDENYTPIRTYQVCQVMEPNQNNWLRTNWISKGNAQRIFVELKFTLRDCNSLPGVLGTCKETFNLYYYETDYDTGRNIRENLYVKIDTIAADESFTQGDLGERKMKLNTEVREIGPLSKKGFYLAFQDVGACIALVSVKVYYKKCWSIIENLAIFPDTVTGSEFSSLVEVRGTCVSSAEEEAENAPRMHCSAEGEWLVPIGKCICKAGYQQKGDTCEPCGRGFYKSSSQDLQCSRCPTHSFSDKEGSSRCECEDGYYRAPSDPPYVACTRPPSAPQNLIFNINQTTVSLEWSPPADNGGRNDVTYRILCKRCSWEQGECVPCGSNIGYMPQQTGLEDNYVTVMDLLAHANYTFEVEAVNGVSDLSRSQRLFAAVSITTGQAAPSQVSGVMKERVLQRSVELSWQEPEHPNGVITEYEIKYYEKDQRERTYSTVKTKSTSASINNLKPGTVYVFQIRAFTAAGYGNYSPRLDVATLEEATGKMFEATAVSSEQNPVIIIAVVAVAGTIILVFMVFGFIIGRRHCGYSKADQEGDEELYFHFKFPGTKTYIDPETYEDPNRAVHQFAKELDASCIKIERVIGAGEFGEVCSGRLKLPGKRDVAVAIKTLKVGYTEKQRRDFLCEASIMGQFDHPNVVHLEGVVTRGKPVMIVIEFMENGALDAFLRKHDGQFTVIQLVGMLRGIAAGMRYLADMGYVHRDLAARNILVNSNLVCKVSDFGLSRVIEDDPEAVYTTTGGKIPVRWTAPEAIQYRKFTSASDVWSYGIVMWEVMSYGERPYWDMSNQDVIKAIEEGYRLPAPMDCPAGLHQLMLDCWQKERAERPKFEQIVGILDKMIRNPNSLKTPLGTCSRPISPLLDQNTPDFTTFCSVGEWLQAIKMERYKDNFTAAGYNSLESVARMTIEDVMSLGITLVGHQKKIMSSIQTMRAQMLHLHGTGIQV
# T1 sequence (O14578 whole entry): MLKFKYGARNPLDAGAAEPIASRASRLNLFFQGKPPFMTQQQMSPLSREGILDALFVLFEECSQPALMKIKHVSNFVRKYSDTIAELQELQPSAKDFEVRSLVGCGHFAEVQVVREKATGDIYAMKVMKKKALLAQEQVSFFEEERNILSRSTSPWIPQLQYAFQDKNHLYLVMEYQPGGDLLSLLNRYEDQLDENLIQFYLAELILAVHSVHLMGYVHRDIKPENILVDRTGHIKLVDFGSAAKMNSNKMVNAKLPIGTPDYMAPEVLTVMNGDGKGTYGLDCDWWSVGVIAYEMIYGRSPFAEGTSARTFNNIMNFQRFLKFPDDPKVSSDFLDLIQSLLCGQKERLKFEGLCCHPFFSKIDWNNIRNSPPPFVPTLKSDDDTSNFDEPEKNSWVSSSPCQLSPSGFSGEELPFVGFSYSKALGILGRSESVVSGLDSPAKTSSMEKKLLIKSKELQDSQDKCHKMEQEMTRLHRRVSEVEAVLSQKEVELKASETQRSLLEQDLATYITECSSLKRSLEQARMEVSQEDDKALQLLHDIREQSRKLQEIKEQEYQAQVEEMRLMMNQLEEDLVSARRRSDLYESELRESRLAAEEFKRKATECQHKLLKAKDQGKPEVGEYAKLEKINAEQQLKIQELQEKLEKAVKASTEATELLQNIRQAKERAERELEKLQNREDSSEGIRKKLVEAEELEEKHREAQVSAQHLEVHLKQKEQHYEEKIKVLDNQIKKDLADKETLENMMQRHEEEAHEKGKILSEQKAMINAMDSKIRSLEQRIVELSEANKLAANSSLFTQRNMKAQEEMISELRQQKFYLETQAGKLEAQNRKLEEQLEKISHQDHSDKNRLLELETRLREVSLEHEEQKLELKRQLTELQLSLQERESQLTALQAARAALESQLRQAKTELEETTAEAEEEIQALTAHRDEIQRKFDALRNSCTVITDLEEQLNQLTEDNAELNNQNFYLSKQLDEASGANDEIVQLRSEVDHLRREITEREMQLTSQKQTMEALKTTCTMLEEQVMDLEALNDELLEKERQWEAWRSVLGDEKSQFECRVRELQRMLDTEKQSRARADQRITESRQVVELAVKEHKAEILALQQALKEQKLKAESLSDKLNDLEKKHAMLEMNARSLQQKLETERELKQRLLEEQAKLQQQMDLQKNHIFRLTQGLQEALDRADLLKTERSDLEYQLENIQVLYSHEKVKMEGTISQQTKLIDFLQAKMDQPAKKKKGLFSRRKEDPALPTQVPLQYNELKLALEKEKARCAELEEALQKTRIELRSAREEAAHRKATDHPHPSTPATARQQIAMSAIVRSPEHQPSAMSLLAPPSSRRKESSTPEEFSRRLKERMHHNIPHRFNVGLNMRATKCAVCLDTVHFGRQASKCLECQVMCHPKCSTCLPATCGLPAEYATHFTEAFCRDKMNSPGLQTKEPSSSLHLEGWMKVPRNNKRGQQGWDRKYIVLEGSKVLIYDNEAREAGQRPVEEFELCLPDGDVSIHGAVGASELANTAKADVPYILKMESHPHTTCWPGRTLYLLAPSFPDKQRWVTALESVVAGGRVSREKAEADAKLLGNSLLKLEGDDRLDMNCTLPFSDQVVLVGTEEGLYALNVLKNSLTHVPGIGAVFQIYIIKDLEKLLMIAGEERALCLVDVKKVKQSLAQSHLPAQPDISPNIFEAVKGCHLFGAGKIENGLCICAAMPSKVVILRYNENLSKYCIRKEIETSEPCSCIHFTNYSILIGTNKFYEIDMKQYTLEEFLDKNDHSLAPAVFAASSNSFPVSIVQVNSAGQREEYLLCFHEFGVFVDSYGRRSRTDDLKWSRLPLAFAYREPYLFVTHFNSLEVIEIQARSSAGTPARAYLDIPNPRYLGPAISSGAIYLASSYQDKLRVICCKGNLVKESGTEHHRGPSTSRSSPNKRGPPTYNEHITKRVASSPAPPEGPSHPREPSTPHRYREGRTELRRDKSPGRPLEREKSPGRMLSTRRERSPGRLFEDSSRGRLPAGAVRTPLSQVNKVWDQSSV
# T39 sequence (Q9BYT3 whole entry): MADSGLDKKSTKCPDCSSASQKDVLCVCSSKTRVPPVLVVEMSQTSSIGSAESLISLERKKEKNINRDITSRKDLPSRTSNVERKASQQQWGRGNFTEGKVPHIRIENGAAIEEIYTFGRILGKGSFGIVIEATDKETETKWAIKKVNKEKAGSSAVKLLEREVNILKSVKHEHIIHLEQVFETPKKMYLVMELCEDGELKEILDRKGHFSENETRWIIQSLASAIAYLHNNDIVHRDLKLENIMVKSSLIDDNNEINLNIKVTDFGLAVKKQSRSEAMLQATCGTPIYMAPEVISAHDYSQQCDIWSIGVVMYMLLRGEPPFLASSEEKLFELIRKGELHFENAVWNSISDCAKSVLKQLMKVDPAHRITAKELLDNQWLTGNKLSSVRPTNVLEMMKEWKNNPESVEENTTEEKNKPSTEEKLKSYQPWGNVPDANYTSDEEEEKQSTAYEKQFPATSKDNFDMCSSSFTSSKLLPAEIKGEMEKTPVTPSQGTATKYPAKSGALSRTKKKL
# T13 sequence (Q8NEV4 whole entry): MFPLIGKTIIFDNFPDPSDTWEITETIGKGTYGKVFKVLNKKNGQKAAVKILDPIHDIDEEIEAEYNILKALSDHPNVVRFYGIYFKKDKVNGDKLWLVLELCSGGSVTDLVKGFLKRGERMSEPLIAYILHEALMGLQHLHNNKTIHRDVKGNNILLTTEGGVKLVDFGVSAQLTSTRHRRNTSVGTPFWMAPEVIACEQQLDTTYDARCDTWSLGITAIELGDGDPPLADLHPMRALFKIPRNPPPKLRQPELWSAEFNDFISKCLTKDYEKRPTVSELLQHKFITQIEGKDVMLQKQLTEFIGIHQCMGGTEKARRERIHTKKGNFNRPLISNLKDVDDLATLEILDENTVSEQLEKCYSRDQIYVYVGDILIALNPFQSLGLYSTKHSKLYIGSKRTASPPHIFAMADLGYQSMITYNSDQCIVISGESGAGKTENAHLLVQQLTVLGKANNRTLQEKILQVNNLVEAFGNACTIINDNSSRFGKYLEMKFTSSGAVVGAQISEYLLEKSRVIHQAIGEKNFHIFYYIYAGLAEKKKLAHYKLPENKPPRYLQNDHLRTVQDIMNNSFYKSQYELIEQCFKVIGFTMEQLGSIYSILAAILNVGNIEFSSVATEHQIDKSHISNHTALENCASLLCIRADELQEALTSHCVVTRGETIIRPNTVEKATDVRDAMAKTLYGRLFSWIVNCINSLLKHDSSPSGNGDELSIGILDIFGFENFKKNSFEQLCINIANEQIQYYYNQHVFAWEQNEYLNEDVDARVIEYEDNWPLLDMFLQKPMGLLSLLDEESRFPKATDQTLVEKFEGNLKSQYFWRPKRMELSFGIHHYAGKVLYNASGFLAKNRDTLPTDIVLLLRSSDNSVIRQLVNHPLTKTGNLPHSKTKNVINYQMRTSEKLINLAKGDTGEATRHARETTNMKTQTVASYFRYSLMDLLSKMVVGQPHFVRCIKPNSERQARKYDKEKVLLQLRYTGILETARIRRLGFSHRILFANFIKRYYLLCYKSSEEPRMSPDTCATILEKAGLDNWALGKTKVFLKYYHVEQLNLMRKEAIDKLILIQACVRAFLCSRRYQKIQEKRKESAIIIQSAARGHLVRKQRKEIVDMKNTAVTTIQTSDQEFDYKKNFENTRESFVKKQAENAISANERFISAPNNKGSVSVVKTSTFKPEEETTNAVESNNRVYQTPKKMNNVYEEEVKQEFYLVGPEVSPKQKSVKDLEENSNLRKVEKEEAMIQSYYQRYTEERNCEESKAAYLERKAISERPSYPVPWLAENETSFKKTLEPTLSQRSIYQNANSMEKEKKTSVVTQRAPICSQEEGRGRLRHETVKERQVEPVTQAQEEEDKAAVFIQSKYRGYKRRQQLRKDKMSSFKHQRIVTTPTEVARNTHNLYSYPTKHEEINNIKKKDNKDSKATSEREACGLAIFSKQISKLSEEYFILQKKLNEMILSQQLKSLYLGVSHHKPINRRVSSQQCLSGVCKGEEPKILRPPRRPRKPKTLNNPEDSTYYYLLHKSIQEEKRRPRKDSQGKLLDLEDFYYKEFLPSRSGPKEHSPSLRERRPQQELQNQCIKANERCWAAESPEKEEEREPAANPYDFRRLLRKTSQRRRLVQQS
smiles,measurement,setting,value
"CCn1cnc2c(NCc3ccc(-c4ccccn4)nc3)nc(-c3ccc(N)nc3)nc21 [Compound 30d, N-([2,2′-Bipyridin]-5-ylmethyl)-2-(6-aminopyridin-3-yl)-9-ethyl-9H-purin-6-amine]",remaining activity at 10 µM,CIT,97.9%
same,remaining activity at 10 µM,AKT2,100%
same,remaining activity at 10 µM,SLK,69.5%
same,remaining activity at 10 µM,SNRK,93%
same,remaining activity at 10 µM,HPK1,30.2%
same,remaining activity at 10 µM,EPHA5,5.9%
same,remaining activity at 10 µM,MARK2,74.3%
same,remaining activity at 10 µM,FGFR4,87.4%
same,remaining activity at 10 µM,ALK,59.7%
same,remaining activity at 10 µM,MYLK2,60%
same,remaining activity at 10 µM,PRKD1,70.3%
same,remaining activity at 10 µM,DAPK3,80.8%
same,remaining activity at 10 µM,MYO3A,71.3%
same,remaining activity at 10 µM,GSK3a,10.6%
same,remaining activity at 10 µM,FRK,43.5%
same,remaining activity at 10 µM,PAK6,57.2%
same,remaining activity at 10 µM,MKK6,95.4%
same,remaining activity at 10 µM,CLK4,28.7%
same,remaining activity at 10 µM,P38-gamma,118%
same,remaining activity at 10 µM,MET,96.4%
same,remaining activity at 10 µM,WNK1,82.5%
same,remaining activity at 10 µM,MAP3K1,87%
same,remaining activity at 10 µM,MASTL,103%
same,remaining activity at 10 µM,MST3,47%
same,remaining activity at 10 µM,STK16,35.9%
same,remaining activity at 10 µM,PDPK1,105%
same,remaining activity at 10 µM,LOK,41.4%
same,remaining activity at 10 µM,CDK4/cyclinD3,28.6%
same,remaining activity at 10 µM,DMPK,90.4%
same,remaining activity at 10 µM,MAST3,39.3%
same,remaining activity at 10 µM,CSNK1G2,27%
same,remaining activity at 10 µM,EPHA7,31.3%
same,remaining activity at 10 µM,ACVRL1,105%
same,remaining activity at 10 µM,MINK,101%
same,remaining activity at 10 µM,TGFBR2,94.5%
same,remaining activity at 10 µM,LTK,73.6%
same,remaining activity at 10 µM,PIM1,97.8%
same,remaining activity at 10 µM,TNK1,91.3%
same,remaining activity at 10 µM,STK33,33.5%
same,remaining activity at 10 µM,TLK2,72.2%
same,remaining activity at 10 µM,SNARK,59%
same,remaining activity at 10 µM,VEGFR2,88.6%
same,remaining activity at 10 µM,IKK-alpha,71.5%
same,remaining activity at 10 µM,IKK-epsilon,80.1%
